“Also recorded” adds a separate entry of the source. Like-named read-outs stand apart in the source and are kept apart here.

What all share (type): physicochemical
One data set can be described thus: Solubility in water.
Data set [1] can be described thus: Solubility in organic solvents.
The nature of data set [2]: Thermodynamic stability of the solid form. The following applies: crystalline vs amorphous.
Data set [3] in a line: Decomposition in solvents.

As to `N[C@@H](CC(=O)Nc1ccn([C@@H]2O[C@H](CO)[C@@H](O)[C@@H]2O)c(=O)n1)C(=O)O` [Form B, (S)-2-amino-4-((1-((2R,3S,4S,5R)-3,4-dihydroxy-5-(hydroxymethyl)tetrahydrofuran-2-yl)-2-oxo-1,2-dihydropyrimidin-4-yl)amino)-4-oxobutanoic acid], the solubility in water result in the data set “Solubility in water” is “up to 2%”; in “Solubility in water” (result in words), “insoluble; also recorded: not soluble”. Besides, the “solubility in DCM” value in data set [1] (DCM) is given as “not soluble”. Further, the “solubility in EtOH” value in data set [1] (EtOH) was “not soluble”. Also, the “solubility in MeOH” value in data set [1] (MeOH) was “not soluble”. Also, the “solubility in NMP” value in data set [1] (NMP) is recorded as “soluble”. Moreover, the “solubility in THF” value in data set [1] (THF) is reported as “not soluble”. Further, the “solubility in an amide solvent” value in data set [1] (amide solvent) is on record as “soluble”. The “solubility in ethyl acetate” value in data set [1] (ethyl acetate) is “not soluble”. The “solubility in most organic solvents” value in data set [1] (most organic solvents) is listed as “non soluble; also recorded: insoluble; also recorded: not soluble”. The solubility in toluene entry in data set [1] (toluene) is given as “not soluble”. In data set [2], the thermodynamic stability result is recorded as “thermodynamically more stable than the amorphous form”.
For `Cl.N[C@@H](CC(=O)Nc1ccn([C@@H]2O[C@H](CO)[C@@H](O)[C@@H]2O)c(=O)n1)C(=O)O` [aspacytarabine-HCl], in data set [3] (strong polar aprotic solvent DMF), the “decomposition in DMF” value is listed as “decompose”. Further, the “decomposition in DMSO” value in data set [3] (strong polar aprotic solvent DMSO) is reported as “decompose”. Moreover, the decomposition in water entry in data set [3] (water, rate is determined by heat and time) is “decompose”.

(Values after US20230331762A1, “CRYSTALLINE FORM OF ASPACYTARABINE” (Biosight Ltd., priority 2020, published 2023).)
